The values below come from patent publication US8519004B2 (Repros Therapeutics Inc., priority 2005, dated 2013).

Structures can show the parent of a compound that is named as a salt.

Data set [1] in a line: Clinical chemistry and hematology parameters in male baboons. The data set is classed as in vivo. The following applies: for serum glucose: change with treatment; for ALT/SGPT: changes over the treatment period / end of the study; for serum carbon dioxide: day 12; for serum anion gap: day 12 and washout; for BUN and BUN/creatinine: during the study.
From the text: (§1) The samples analyzed were sera taken on the day of first treatment before being given test article (day 0), after 12 days of treatment (day 12) and 7 days after the last treatment (end or wash-out).
The next data set concerns serum cholesterol. Put plainly: Serum cholesterol in male baboons. The data set is classed as in vivo. The settings on record: 1.5 mg/kg for 12 days.
For data set [2] the following is noted: following a single dose; cited from earlier work.
For data set [3] the following is noted: 50 mg dose; placebo group ratio 1.07.
Method: (§2) Half of the men in each of the Androxal™ and placebo arms were randomized into cohorts that underwent in-clinic sessions on days 1 and 14 to determine pharmacokinetic parameters for Androxal™ as well as cyclical changes in testosterone. The placebo and Androxal™ doses were administered in a double blind fashion. The Androgel® cream was administered in an open label fashion. Half of the Androgel® patients underwent in-clinic sessions similar to the other patients in the study. Following the two week drug exposure patients were followed for an additional seven to ten days to determine the status of their testosterone levels.
In the next data set the test system is serum LH and FSH. The settings on record: during treatment.
For another data set, the system named is serum testosterone. Put plainly: Serum testosterone in male baboons given Clomid, Enclomid or Zuclomid. The settings on record: between day 12 and day 18 (washout). The data set is classed as in vivo.

Method for serum LH and FSH: as §2
From the text for serum cholesterol: as §1
From the text for serum testosterone: as §1
Method for serum total testosterone: as §2

For `CCN(CC)CCOc1ccc(C(=C(Cl)c2ccccc2)c2ccccc2)cc1` [Clomid, clomiphene citrate], in data set [1], the serum glucose result is recorded as “within the normal range”, the ALT/SGPT result is given as “out of range low”, the serum carbon dioxide result is recorded as “higher than reference values” and the serum anion gap entry is “lower values than the Enclomid group”. Also, the “BUN and BUN/creatinine” value in data set [1] is “altered”. For the same compound, the “increase in serum cholesterol levels” value with serum cholesterol is on record as “slight increase”.

Take `CCN(CC)CCOc1ccc(/C(=C(/Cl)c2ccccc2)c2ccccc2)cc1` [Zuclomid, cis-clomiphene]: the “red blood cell population” value in data set [1] (1.5 mg/kg for 12 days) is “substantive effects on the red blood cell population”. Further, in data set [1], the serum glucose result is “within the normal range”, the ALT/SGPT result is on record as “within the normal range”, the serum carbon dioxide result was “higher than reference values” and the serum anion gap entry is “lower values than the Enclomid group”. In data set [2], the “duration of residual blood levels” value was “in excess of one month”.

Take `CCN(CC)CCOc1ccc(/C(=C(\Cl)c2ccccc2)c2ccccc2)cc1` [Enclomid, trans-clomiphene]: in data set [1] (1.5 mg/kg for 12 days), the eosinophil count result was “raising the counts of lymphocytes and eosinophiles”; the lymphocyte count result is reported as “increase in lymphocyte count”; the “red blood cell population” value is “substantive effects on the red blood cell population”. The serum creatinine result in data set [1] (between day 0 and Day 12) is “no differences between serum creatinine values”. Also, in data set [1], the ALT/SGPT entry is “within the normal range”; the serum anion gap entry is “raised this parameter towards normal values”; the “BUN and BUN/creatinine” value is “altered”. The “percent of granulocytes in the blood” value in data set [1] (very strong after the 7-day washout period) is recorded as “lowering the percent of granulocytes in the blood”. For the same compound, in the data set with serum total testosterone (7-10 days after cessation of daily oral treatment), the “serum total testosterone in the follow-up period” value is on record as “remained high”. For the same compound, in the data set with serum total testosterone (all doses), the “changes in testosterone from baseline testosterone levels” value was “statistically significant changes in testosterone”. In addition, the “serum total testosterone in follow-up, highest dose compared to the high dose of AndroGel 1%” value with serum total testosterone (follow-up period, p=0.017, t-test) is “significantly higher”. For the same compound, in data set [3], the DHT/TT ratio stood at 0.83. In the data set with serum LH and FSH, the “serum levels of FSH” value is listed as “statistically increase” and the “serum levels of LH” value is reported as “statistically significant increase”. For the same compound, the “change in total serum testosterone after cessation of treatment” value in the data set on serum testosterone was “significant drop in the level of total serum testosterone”.
